Results from ChEMBL document CHEMBL4364276, “Discovery of 4-phenyl-2H-benzo[b][1,4]oxazin-3(4H)-one derivatives as potent and orally active PI3K/mTOR dual inhibitors” (Eur J Med Chem, 2019).

Experiments:
[1] = target: Testis-specific serine/threonine-protein kinase 3 (Homo sapiens) (UniProt Q96PN8); experiment: Inhibition of human TSSK3 at 100 nM using KKKVSRSGLYRSPSMPENLNRPR as substrate by [gamma-33P]-ATP assay
[2] = target: CDK2/Cyclin A2 (Homo sapiens) (UniProt P24941+P20248); experiment: Inhibition of human CDK2/cyclin-A at 100 nM using histone H1 as substrate by [gamma-33P]-ATP assay; type: protein-complex assay
[3] = target: MAP/microtubule affinity-regulating kinase 4 (Homo sapiens) (UniProt Q96L34); experiment: Inhibition of human MARK4 at 100 nM using KKKVSRSGLYRSPSMPENLNRPR as substrate by [gamma-33P]-ATP assay
[4] = target: Serine/threonine-protein kinase/endoribonuclease IRE2 (Homo sapiens) (UniProt Q76MJ5); experiment: Inhibition of human ERN2 at 100 nM using MBP as substrate by [gamma-33P]-ATP assay
[5] = target: Death-associated protein kinase 3 (Homo sapiens) (UniProt O43293); experiment: Inhibition of human ZIPK at 100 nM using KKLNRTLSFAEPG as substrate by [gamma-33P]-ATP assay
HeLa = experiment: Antitumor activity against human HeLa cells xenografted in BALB/c nude mouse assessed as tumor growth inhibition at 50 mg/kg, ig administered for 30 days measured every 3 days during compound dosing relative to control; type: functional; conditions: po, read-out: TGI
[6] = target: Serine/threonine-protein kinase 17A (Homo sapiens) (UniProt Q9UEE5); experiment: Inhibition of human DRAK1 at 100 nM using KKLNRTLSFAEPG as substrate by [gamma-33P]-ATP assay
[7] = target: Serine/threonine-protein kinase 38 (Homo sapiens) (UniProt Q15208); experiment: Inhibition of human STK38 at 100 nM using KKRNRRLSVA as substrate by [gamma-33P]-ATP assay
[8] = target: Tyrosine-protein kinase receptor TYRO3 (Homo sapiens) (UniProt Q06418); experiment: Inhibition of human TYRO3 at 100 nM using poly[Glu:Tyr] (4:1) as substrate by [gamma-33P]-ATP assay
[9] = target: TGF-beta receptor type-1 (Homo sapiens) (UniProt P36897); experiment: Inhibition of human ALK5 at 100 nM using casein as substrate by [gamma-33P]-ATP assay
[10] = target: Tau-tubulin kinase 2 (Homo sapiens) (UniProt Q6IQ55); experiment: Inhibition of human TTBK2 at 100 nM using MBP as substrate by [gamma-33P]-ATP assay
[11] = target: Serine/threonine-protein kinase PAK 3 (Homo sapiens) (UniProt O75914); experiment: Inhibition of human PAK3 at 100 nM using RRRLSFAEPG as substrate by [gamma-33P]-ATP assay
[12] = target: CDK8/Cyclin C (Homo sapiens) (UniProt P49336+P24863); experiment: Inhibition of human CDK8/cyclin-C at 100 nM using KKKVSRSGLYRSPSMPENLNRPR as substrate by [gamma-33P]-ATP assay; type: protein-complex assay
[13] = target: CDK1/Cyclin E (Homo sapiens) (UniProt P06493+P24864); experiment: Inhibition of human CDK1/cyclinE at 100 nM using RB protein as substrate by [gamma-33P]-ATP assay; type: protein-complex assay
[14] = target: Receptor tyrosine-protein kinase erbB-4 (Homo sapiens) (UniProt Q15303); experiment: Inhibition of human ERBB4 at 100 nM using poly[Glu:Tyr] (4:1) as substrate by [gamma-33P]-ATP assay
[15] = target: Serine/threonine-protein kinase PLK2 (Homo sapiens) (UniProt Q9NYY3); experiment: Inhibition of human PLK2 at 100 nM using casein as substrate by [gamma-33P]-ATP assay
[16] = target: Serine/threonine-protein kinase Nek9 (Homo sapiens) (UniProt Q8TD19); experiment: Inhibition of human NEK9 at 100 nM using casein as substrate by [gamma-33P]-ATP assay
[17] = target: cAMP-dependent protein kinase catalytic subunit alpha (Homo sapiens) (UniProt P17612); experiment: Inhibition of human PKA at 100 nM using LCGRTGRRNSI as substrate by [gamma-33P]-ATP assay
[18] = target: Tyrosine-protein kinase Lck (Homo sapiens) (UniProt P06239); experiment: Inhibition of human LCK at 100 nM using poly[Glu:Tyr] (4:1) as substrate by [gamma-33P]-ATP assay
[19] = target: Casein kinase I isoform alpha-like (Homo sapiens) (UniProt Q8N752); experiment: Inhibition of human CK1a1L at 100 nM using KRRRAL[pS]VASLPGL as substrate by [gamma-33P]-ATP assay
[20] = target: Transient receptor potential cation channel subfamily M member 7 (Homo sapiens) (UniProt Q96QT4); experiment: Inhibition of human TRPM7 at 100 nM using MBP as substrate by [gamma-33P]-ATP assay
[21] = target: Serine/threonine-protein kinase 3 (Homo sapiens) (UniProt Q13188); experiment: Inhibition of human MST2 at 100 nM using MBP as substrate by [gamma-33P]-ATP assay
[22] = target: Calcium/calmodulin-dependent protein kinase type II subunit alpha (Homo sapiens) (UniProt Q9UQM7); experiment: Inhibition of human CAMK2A at 100 nM using KKALRRQETVDAL as substrate by [gamma-33P]-ATP assay
[23] = target: SNF-related serine/threonine-protein kinase (Homo sapiens) (UniProt Q9NRH2); experiment: Inhibition of human SNRK at 100 nM using MBP as substrate by [gamma-33P]-ATP assay
[24] = target: Serine/threonine-protein kinase BRSK2 (Homo sapiens) (UniProt Q8IWQ3); experiment: Inhibition of human BRSK2 at 100 nM using KKLNRTLSFAEPG as substrate by [gamma-33P]-ATP assay
[25] = target: Membrane-associated tyrosine- and threonine-specific cdc2-inhibitory kinase (Homo sapiens) (UniProt Q99640); experiment: Inhibition of human PKMYT1 at 100 nM using MBP as substrate by [gamma-33P]-ATP assay
[26] = target: Mitogen-activated protein kinase kinase kinase 9 (Homo sapiens) (UniProt P80192); experiment: Inhibition of human MLK1 at 100 nM using casein as substrate by [gamma-33P]-ATP assay
[27] = target: Serine/threonine-protein kinase TAO3 (Homo sapiens) (UniProt Q9H2K8); experiment: Inhibition of human TAOK3 at 100 nM using MBP as substrate by [gamma-33P]-ATP assay
[28] = target: Protein kinase C eta type (Homo sapiens) (UniProt P24723); experiment: Inhibition of human PKCeta at 100 nM using ERMRPRKRQGSVRRRV as substrate by [gamma-33P]-ATP assay
[29] = target: Serine/threonine-protein kinase Chk2 (Homo sapiens) (UniProt O96017); experiment: Inhibition of human CHK2 at 100 nM using KKKVSRSGLYRSPSMPENLNRPR as substrate by [gamma-33P]-ATP assay

Serine/threonine-protein kinase PAK 3 (Homo sapiens), sequence (O75914 whole entry, looked up): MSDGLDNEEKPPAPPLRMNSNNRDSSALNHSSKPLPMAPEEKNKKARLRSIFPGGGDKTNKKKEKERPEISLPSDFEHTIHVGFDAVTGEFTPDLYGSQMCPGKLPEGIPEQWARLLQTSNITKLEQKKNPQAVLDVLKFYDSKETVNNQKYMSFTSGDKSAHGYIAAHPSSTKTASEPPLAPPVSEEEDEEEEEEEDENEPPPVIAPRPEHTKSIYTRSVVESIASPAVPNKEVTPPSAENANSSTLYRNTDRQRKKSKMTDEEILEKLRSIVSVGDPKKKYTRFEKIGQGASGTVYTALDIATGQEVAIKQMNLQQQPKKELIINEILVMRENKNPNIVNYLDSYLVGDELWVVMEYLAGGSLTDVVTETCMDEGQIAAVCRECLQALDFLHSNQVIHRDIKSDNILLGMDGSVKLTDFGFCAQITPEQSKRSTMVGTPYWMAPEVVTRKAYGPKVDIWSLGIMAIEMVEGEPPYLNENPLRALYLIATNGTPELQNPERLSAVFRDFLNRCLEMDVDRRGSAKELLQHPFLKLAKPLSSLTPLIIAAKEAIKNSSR
Calcium/calmodulin-dependent protein kinase type II subunit alpha (Homo sapiens), sequence (Q9UQM7 whole entry): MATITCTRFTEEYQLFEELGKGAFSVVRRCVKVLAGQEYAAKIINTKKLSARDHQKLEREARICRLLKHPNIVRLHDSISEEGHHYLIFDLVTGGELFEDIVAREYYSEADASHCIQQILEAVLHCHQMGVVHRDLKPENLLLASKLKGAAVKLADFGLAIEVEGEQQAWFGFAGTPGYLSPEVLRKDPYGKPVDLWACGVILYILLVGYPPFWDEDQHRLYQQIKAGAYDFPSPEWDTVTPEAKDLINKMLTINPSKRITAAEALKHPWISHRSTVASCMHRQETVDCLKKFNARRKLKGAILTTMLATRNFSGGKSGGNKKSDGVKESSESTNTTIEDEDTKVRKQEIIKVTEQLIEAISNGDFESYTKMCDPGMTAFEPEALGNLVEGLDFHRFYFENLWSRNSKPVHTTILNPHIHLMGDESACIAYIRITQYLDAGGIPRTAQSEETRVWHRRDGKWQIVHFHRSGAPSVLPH
Serine/threonine-protein kinase TAO3 (Homo sapiens), sequence (Q9H2K8 whole entry): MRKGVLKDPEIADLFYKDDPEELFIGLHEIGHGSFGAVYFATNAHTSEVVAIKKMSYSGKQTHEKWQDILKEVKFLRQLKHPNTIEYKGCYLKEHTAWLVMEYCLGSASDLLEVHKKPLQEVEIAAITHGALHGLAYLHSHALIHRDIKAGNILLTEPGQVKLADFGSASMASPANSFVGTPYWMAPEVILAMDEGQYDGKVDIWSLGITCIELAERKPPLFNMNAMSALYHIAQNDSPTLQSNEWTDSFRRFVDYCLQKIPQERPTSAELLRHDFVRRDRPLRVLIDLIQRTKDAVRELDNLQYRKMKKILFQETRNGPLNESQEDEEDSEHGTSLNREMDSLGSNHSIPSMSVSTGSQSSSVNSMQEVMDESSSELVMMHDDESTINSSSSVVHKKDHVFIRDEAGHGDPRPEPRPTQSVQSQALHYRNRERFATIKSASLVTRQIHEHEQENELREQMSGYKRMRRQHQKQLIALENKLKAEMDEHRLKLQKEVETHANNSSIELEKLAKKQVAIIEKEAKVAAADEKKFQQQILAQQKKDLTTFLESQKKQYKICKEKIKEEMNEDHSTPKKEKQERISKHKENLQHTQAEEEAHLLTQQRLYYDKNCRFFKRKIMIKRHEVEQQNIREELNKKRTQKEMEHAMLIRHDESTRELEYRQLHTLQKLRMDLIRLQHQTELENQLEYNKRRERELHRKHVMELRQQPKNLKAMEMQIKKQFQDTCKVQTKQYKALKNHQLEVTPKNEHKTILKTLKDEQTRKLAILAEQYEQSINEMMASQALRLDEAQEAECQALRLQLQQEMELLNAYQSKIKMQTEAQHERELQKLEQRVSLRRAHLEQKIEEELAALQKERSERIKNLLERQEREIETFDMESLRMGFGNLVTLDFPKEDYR
Protein kinase C eta type (Homo sapiens), sequence (P24723 whole entry): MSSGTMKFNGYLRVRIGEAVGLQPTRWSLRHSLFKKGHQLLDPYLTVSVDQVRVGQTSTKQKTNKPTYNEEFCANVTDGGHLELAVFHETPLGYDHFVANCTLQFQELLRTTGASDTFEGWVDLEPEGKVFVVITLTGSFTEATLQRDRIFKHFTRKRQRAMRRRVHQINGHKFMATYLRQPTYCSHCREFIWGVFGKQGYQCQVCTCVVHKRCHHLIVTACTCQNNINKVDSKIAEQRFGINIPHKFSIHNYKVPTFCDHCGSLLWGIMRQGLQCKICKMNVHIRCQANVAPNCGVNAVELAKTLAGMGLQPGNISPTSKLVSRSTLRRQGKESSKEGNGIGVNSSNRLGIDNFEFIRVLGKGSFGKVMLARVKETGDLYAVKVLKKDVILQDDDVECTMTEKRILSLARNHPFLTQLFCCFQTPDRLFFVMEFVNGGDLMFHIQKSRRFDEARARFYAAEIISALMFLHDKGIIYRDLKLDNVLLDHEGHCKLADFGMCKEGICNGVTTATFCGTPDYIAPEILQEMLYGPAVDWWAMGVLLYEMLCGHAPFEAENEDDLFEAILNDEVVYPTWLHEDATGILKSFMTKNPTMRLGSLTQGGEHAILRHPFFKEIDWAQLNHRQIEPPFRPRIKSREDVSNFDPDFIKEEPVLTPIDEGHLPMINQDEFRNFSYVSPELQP
TGF-beta receptor type-1 (Homo sapiens), sequence (P36897 whole entry): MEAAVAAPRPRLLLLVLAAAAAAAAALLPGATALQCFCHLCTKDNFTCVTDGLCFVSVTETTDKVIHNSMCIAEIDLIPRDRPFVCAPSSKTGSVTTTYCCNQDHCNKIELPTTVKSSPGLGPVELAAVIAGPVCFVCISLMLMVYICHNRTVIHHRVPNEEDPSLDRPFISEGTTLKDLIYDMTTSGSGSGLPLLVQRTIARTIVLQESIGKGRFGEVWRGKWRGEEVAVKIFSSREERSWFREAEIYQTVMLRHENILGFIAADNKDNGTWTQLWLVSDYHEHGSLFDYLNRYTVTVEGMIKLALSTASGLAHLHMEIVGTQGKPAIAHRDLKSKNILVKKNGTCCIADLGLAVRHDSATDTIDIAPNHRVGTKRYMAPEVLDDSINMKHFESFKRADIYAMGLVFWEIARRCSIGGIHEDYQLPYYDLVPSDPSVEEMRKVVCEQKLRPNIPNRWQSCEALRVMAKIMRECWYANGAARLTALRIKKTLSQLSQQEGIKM
Serine/threonine-protein kinase Nek9 (Homo sapiens), sequence (Q8TD19 whole entry): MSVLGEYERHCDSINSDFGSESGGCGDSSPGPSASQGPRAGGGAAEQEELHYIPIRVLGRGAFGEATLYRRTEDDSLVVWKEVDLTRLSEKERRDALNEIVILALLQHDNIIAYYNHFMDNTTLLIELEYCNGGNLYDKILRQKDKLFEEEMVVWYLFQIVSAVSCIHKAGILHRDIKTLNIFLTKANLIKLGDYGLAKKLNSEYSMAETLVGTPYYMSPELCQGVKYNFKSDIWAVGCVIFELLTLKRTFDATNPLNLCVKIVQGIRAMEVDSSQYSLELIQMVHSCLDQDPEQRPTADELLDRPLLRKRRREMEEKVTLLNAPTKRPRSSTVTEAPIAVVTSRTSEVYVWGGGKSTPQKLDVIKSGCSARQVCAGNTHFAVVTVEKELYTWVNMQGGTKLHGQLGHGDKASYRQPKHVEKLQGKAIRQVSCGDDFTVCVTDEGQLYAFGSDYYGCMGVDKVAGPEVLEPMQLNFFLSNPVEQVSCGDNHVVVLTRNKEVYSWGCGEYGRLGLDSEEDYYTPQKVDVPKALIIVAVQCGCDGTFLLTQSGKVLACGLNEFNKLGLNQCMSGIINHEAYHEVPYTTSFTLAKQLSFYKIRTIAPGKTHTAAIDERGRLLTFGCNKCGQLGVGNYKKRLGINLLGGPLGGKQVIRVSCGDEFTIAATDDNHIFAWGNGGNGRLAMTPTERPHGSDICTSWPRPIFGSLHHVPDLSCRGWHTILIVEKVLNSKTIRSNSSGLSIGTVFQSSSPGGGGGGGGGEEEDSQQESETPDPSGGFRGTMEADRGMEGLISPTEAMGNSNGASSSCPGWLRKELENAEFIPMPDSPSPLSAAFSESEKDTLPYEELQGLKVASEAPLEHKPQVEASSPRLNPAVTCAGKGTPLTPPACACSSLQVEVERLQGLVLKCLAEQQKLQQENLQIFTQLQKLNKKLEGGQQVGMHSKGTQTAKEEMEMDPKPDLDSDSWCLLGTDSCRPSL
Serine/threonine-protein kinase 3 (Homo sapiens), sequence (Q13188 whole entry): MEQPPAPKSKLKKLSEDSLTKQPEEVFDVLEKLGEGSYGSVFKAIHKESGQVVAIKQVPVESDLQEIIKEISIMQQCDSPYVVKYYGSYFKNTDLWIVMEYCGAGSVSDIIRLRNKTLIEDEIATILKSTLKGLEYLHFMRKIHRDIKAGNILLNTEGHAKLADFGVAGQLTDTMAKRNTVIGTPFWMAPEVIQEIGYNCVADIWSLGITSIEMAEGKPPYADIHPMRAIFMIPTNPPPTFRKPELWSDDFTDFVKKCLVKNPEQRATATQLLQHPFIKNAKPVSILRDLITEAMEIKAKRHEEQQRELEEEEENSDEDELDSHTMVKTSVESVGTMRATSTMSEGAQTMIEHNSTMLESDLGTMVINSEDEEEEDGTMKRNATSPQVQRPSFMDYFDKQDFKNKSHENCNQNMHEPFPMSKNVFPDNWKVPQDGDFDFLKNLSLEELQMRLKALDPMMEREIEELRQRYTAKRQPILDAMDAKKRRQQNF
Serine/threonine-protein kinase 17A (Homo sapiens), sequence (Q9UEE5 whole entry): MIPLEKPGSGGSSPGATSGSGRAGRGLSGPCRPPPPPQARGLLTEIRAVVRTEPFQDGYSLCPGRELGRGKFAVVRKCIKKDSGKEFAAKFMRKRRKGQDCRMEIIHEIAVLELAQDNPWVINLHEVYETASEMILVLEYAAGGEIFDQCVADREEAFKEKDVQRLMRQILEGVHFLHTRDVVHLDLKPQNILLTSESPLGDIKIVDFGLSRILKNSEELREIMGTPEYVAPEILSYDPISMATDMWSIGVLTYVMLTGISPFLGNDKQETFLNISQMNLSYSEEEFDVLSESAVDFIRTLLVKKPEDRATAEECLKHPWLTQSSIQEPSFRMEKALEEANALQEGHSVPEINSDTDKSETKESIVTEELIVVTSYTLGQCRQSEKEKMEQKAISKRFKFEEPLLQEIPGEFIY

COc1ccc(N2C(=O)COc3ccc(-c4cnc(OC)c(NS(=O)(=O)c5ccc(F)cc5)c4)cc32)cc1
inhibition [1]: -8.01%
inhibition [2]: 2.43%
inhibition [3]: 1.56%
inhibition [4]: -2.98%
inhibition [5]: 0.68%
inhibition in vivo at 50 mg/kg (HeLa): 87.7%
inhibition [6]: 0.44%
inhibition [7]: 4.17%
inhibition [8]: 3.03%
inhibition [9]: 0.84%
inhibition [10]: -3.23%
inhibition [11]: 4.51%
inhibition [12]: 2.74%
inhibition [13]: 7.09%
inhibition [14]: -0.06%
inhibition [15]: 4.64%
inhibition [16]: 10.4%
inhibition [17]: 15.1%
inhibition [18]: 16%
inhibition [19]: -6.28%
inhibition [20]: 1.61%
inhibition [21]: -8.9%
inhibition [22]: 0.08%
inhibition [23]: 17.7%
inhibition [24]: -1.64%
inhibition [25]: 14%
inhibition [26]: 0.68%
inhibition [27]: 6.13%
inhibition [28]: 18%
inhibition [29]: 6.04%
